Results: patent publication US7943795B2, “Vitamin D receptor modulators” (Eli Lilly and Company, priority 2004, dated 2011)

Key:
[1] = system: IL-10 production in PBMCs; assay: IL-10 induction assay; assay type: cell-based; conditions: PBMC; TPA/PHA stimulated human PBMCs, IL-10 in supernatant by immunoassay
From the text: 7. The IL-10 induction assay is described in the “Assay” section of the Description, infra.
The IL-10 Induction Assay
This is an in vitro efficacy assay for psoriasis, abscess and adhesion. Psoriasis involves both keratinocytes and immune cells. IL-10 is a unique cytokine because it is anti-inflammatory and immunosuppressive. This assay tells us whether a VDRM is able to function as an agonist in PBMCs (primary blood mononuclear cells) or not. A lower EC50 value is desirable in this assay since a compound with a lower EC50 value will be a better agonist in PBMCs. An acceptable test result is an EC50 value of less than 200 nM. Preferred assay results are EC50 values of less than 100 nM.
Isolation of Peripheral Blood Mononuclear Cells (PBMCs):
Collect 50 ml of human blood and dilute with media, RPMI-1640. Add diluted blood to sterile tubes with ficol. Centrifuge the tubes. Discard the top layer and collect the cells from middle layer. Divide all cells into four tubes and add media. Centrifuge. Aspirate off media and resuspend the cells. Collect all cells. Centrifuge at 1200 rpm for 10 m. Resuspend the cells in RPMI-1640 with 2% FBS and then count cells.
Stimulation of PBMC: Prepare TPA in DMSO. Dissolve PHA in water. Plate TPA/PHA treated PBMCs in well plates. Incubate the cells.
Treatment: Prepare all compound dilutions in plain RPMI-1640 media. Add diluted compound and incubate. Sample Collection and assay: Remove all the cells by centrifugation and assay the supernatant for IL-10 by immunoassay using anti-human IL-10 antibody coated beads, as described by the manufacturer (Linco Research Inc., St. Charles, Mo.).

[2] = system: KERtr cells (Human skin keratinocyte); assay: Keratinocyte proliferation assay; assay type: cell-based; conditions: 72 hr, BrdU incorporation, read-out: Keranocyte Proliferation IC50
Procedure: 6. The keratinocyte proliferation assay is described in the “Assay” section of the Description, infra.
The Keratinocyte Proliferation Assay
This Assay is indicative for the treatment of psoriasis. An acceptable test result is IC50 value of less than or equal to 300 nM. Preferred assay results are IC50 values of less than 100 nM.
KERtr cells (Human skin keratinocyte are transformed with a retrovirus vector, obtained from ATCC, then are plated in 96-well flat-bottomed plates (3000 cells/well) in 100 μl keratinocyte serum free medium supplemented with bovine pituitary extract in the absence of EGF (Life Technologies, Rockville, Md.) and are incubated at 37° C. for two days. The cells are treated with various concentrations of VDR ligands (ten-fold serial dilution from 10,000 nM to 0.1 nM in triplicate), dissolved in 100 μl keratinocyte serum free medium supplemented with bovine pituitary extract in the absence of EGF and are incubated at 37° C. for 72 hr. BrdU (5-bromo-2′-deoxyuridine) incorporation is analyzed as a measure of DNA replication (Cell proliferation ELISA kit, Roche Diagnostics, Indianapolis, Ind.) and absorbance is measured at […]. Potency values (IC50) values were determined as the concentration (nM) of compound that elicited a half-maximal response.

With `CCC(CC)(c1ccc(OCC(O)C(C)(C)C)c(C)c1)c1ccc2cc(C(=O)O)ccc2c1` (racemic) [Ex. 2, 6-{1-Ethyl-1-[4-(2-hydroxy-3,3-dimethyl-butoxy)-3-methyl-phenyl]-propyl}-naphthalene-2-carboxylic acid] the IC50 [1] was 49 nM and the IC50 [2] was 47 nM.
